Data from ChEMBL document CHEMBL1201862, “PubChem BioAssay data set” (2004).
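The compound was tested at five concentrations on cells cultured in 96-well plates, with a 48-hour exposure period. At the GI50, growth is halved.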 Activity calls are given as the source filed them. Rule as the data show it: active = GI50 up to about 1.1 µM and inactive = higher.

Legend:
Assay in all cases: NCI tumour cell line growth inhibition, 48 h
[1] = tested on: CCRF-CEM
[2] = tested on: Hs-578T
[3] = tested on: IGROV-1
[4] = tested on: K562
[5] = tested on: LOX IMVI
[6] = tested on: M14
[7] = tested on: OVCAR-3
[8] = tested on: OVCAR-4
[9] = tested on: OVCAR-8
[10] = tested on: PC-3
[11] = tested on: RPMI-8226
[12] = tested on: RXF 393
[13] = tested on: SF-268
[14] = tested on: SF-539
[15] = tested on: SK-OV-3
[16] = tested on: SN12C
[17] = tested on: SW-620
[18] = tested on: U-251
[19] = tested on: A498
[20] = tested on: SK-MEL-2

SMILES | GI50 [1] | GI50 [2] | GI50 [3] | GI50 [4] | GI50 [5] | GI50 [6] | GI50 [7] | GI50 [8] | GI50 [9] | GI50 [10] | GI50 [11] | GI50 [12] | GI50 [13] | GI50 [14] | GI50 [15] | GI50 [16] | GI50 [17] | GI50 [18] | GI50 [19] | GI50 [20]
Cc1c2c(nc3ccccc13)C(=O)c1cccnc1C2=O | 22.4 µM (inactive) | 33.5 µM (inactive) | 17.8 µM (inactive) | 20 µM (inactive) | 10.7 µM (inactive) | 6.52 µM (inactive) | 11.7 µM (inactive) | 56.2 µM (inactive) | 16.8 µM (inactive) | 24.3 µM (inactive) | 17 µM (inactive) | 63.5 µM (inactive) | 25.2 µM (inactive) | 5.41 µM (inactive) | > 100 µM (inactive) | 5.79 µM (inactive) | 12.1 µM (inactive) | 10.8 µM (inactive) |  | 
CSc1nc(Cl)c(Br)c(Nc2cnc(O)nc2O)n1 | 17.7 µM (inactive) |  | 6.34 µM (inactive) | 26.9 µM (inactive) | 19.4 µM (inactive) | 27.9 µM (inactive) | 14.6 µM (inactive) | 15.6 µM (inactive) | 15.6 µM (inactive) | 18.8 µM (inactive) | 28.3 µM (inactive) | 22.1 µM (inactive) |  | 20.1 µM (inactive) | 19.4 µM (inactive) | 18.2 µM (inactive) | 27.1 µM (inactive) | 20.2 µM (inactive) | 11.6 µM (inactive) | 17.5 µM (inactive)
COC(=O)/C(=C\Nc1cccc(C)n1)S(=O)(=O)c1ccc(C)cc1 | 37.8 µM (inactive) | 38.9 µM (inactive) | > 100 µM (inactive) | 21.1 µM (inactive) | 79.4 µM (inactive) | 45.7 µM (inactive) | 86.3 µM (inactive) | 93.5 µM (inactive) | 77.6 µM (inactive) | 38.8 µM (inactive) | > 100 µM (inactive) | 70.8 µM (inactive) | 96.2 µM (inactive) | 52.4 µM (inactive) | > 100 µM (inactive) | > 100 µM (inactive) | 27.1 µM (inactive) | 73.3 µM (inactive) |  | 33.4 µM (inactive)
S=C(Nc1cccc(Cl)c1)Nc1ccccn1 | > 100 µM (inactive) | > 100 µM (inactive) | > 100 µM (inactive) | > 100 µM (inactive) | > 100 µM (inactive) | > 100 µM (inactive) | > 100 µM (inactive) | > 100 µM (inactive) | > 100 µM (inactive) | > 100 µM (inactive) | > 100 µM (inactive) | > 100 µM (inactive) | > 100 µM (inactive) | > 100 µM (inactive) | > 100 µM (inactive) | > 100 µM (inactive) | > 100 µM (inactive) | > 100 µM (inactive) |  | > 100 µM (inactive)
COc1ccc(C(O)(c2ccccc2)c2nccc3ccccc23)cc1 (stereo not given) | 2.01 µM (inactive) | 4.71 µM (inactive) | 9.86 µM (inactive) | 2.7 µM (inactive) | 5.18 µM (inactive) | 2.76 µM (inactive) | 2.48 µM (inactive) | 11 µM (inactive) | 18.1 µM (inactive) | 3.02 µM (inactive) | 7.36 µM (inactive) | 3.19 µM (inactive) | 12.4 µM (inactive) |  | 4.06 µM (inactive) | 22.1 µM (inactive) |  | 11.7 µM (inactive) |  | 
CCN1/C(=C/C#C/C(C)=C\c2sc3ccc(Cl)cc3[n+]2CC)Sc2ccc(Cl)cc21 | 0.389 µM (active) | 4.72 µM (inactive) | 4 µM (inactive) | 0.552 µM (active) | 3.31 µM (inactive) | 3.62 µM (inactive) |  | 6.53 µM (inactive) | 3.24 µM (inactive) | 2.33 µM (inactive) | 1.67 µM (inactive) | 5.6 µM (inactive) | 5.22 µM (inactive) | 3.57 µM (inactive) | 5.55 µM (inactive) | 3.57 µM (inactive) | 2.43 µM (inactive) | 3.3 µM (inactive) |  | 1.98 µM (inactive)
C=CCN1CCC(O)(c2cc(C(=O)OCC)[nH]c2-c2cc(C)no2)C1 (stereo not given) | > 100 µM (inactive) |  | > 100 µM (inactive) | > 100 µM (inactive) | > 100 µM (inactive) | > 100 µM (inactive) | > 100 µM (inactive) | > 100 µM (inactive) | > 100 µM (inactive) | > 100 µM (inactive) | > 100 µM (inactive) | > 100 µM (inactive) | > 100 µM (inactive) | > 100 µM (inactive) | > 100 µM (inactive) | > 100 µM (inactive) | > 100 µM (inactive) | > 100 µM (inactive) | > 100 µM (inactive) | > 100 µM (inactive)
CC(=O)NC1C(OCc2ccccc2)OC(CO)C(O)C1OCC(=O)N[C@@H](C)C(=O)N[C@H](CCC(=O)NCCNc1ccc([N+](=O)[O-])c2[nH]c3ccccc3c(=O)c12)C(N)=O (stereo not given in full) | 67.6 µM (inactive) | 71.9 µM (inactive) |  | 58.9 µM (inactive) | 25.9 µM (inactive) | 60.3 µM (inactive) | 36.7 µM (inactive) | 23.3 µM (inactive) | 18.2 µM (inactive) |  | 23 µM (inactive) |  |  | 2.21 µM (inactive) | 81.5 µM (inactive) | 27.4 µM (inactive) | 7.74 µM (inactive) | 29.5 µM (inactive) | 24 µM (inactive) | 
Cn1c(-c2cccs2)cc(-c2ccsc2)c1-c1cccs1 | > 100 µM (inactive) | 96.4 µM (inactive) | > 100 µM (inactive) | 75.7 µM (inactive) |  | 92.3 µM (inactive) | 76.7 µM (inactive) | > 100 µM (inactive) | > 100 µM (inactive) | > 100 µM (inactive) |  | > 100 µM (inactive) | > 100 µM (inactive) | > 100 µM (inactive) | > 100 µM (inactive) | > 100 µM (inactive) | > 100 µM (inactive) | > 100 µM (inactive) | > 100 µM (inactive) | 
O=C(O)CCC(=O)OC1N=C(c2ccccc2Cl)c2cc([N+](=O)[O-])ccc2NC1=O (stereo not given) | 26.3 µM (inactive) | > 100 µM (inactive) | 95.9 µM (inactive) |  | 85.7 µM (inactive) | > 100 µM (inactive) | 32.7 µM (inactive) | 42.2 µM (inactive) | 39 µM (inactive) | 23.6 µM (inactive) |  | 47.3 µM (inactive) | 67.5 µM (inactive) |  | > 100 µM (inactive) | 46.5 µM (inactive) | 26.1 µM (inactive) | 31.5 µM (inactive) | > 100 µM (inactive) | > 100 µM (inactive)
COc1c(C(=O)NCCN(CCNC(=O)c2cccc(-c3cccc(C(=O)N(C)C)c3OC)c2OC)CCNC(=O)c2cccc(-c3cccc(C(=O)N(C)C)c3OC)c2OC)cccc1-c1cccc(C(=O)N(C)C)c1OC | 31.3 µM (inactive) | 32.4 µM (inactive) | 36.1 µM (inactive) | 23.8 µM (inactive) | 18.1 µM (inactive) | > 100 µM (inactive) | 16.1 µM (inactive) | 28.3 µM (inactive) | > 100 µM (inactive) | 38.4 µM (inactive) | 25.9 µM (inactive) | 26.5 µM (inactive) | 15.3 µM (inactive) | 18.1 µM (inactive) | 48.1 µM (inactive) | 24.4 µM (inactive) | 38.1 µM (inactive) | 34 µM (inactive) |  | 
CC(CO)CCNc1ncnc2c1ncn2CCC(=O)OC(C)(C)C (stereo not given) | > 100 µM (inactive) | > 100 µM (inactive) | > 100 µM (inactive) | > 100 µM (inactive) | > 100 µM (inactive) | > 100 µM (inactive) | > 100 µM (inactive) | > 100 µM (inactive) | > 100 µM (inactive) | > 100 µM (inactive) | > 100 µM (inactive) | > 100 µM (inactive) | > 100 µM (inactive) | > 100 µM (inactive) | > 100 µM (inactive) | > 100 µM (inactive) | > 100 µM (inactive) |  | > 100 µM (inactive) | 
Cc1cccc2cc3c(ccc4ccccc43)c[n+]12 | 15.5 µM (inactive) | 5.38 µM (inactive) | 47.1 µM (inactive) | 30.1 µM (inactive) | 50 µM (inactive) |  | 2.06 µM (inactive) |  | 15.4 µM (inactive) | 30.9 µM (inactive) | 22.5 µM (inactive) | 53 µM (inactive) | 2.83 µM (inactive) | 16.7 µM (inactive) |  | 3.18 µM (inactive) | 21.3 µM (inactive) | 2.99 µM (inactive) |  | 20.3 µM (inactive)
CN(C)/C=C/C=C(/C=N/S(=O)(=O)C(F)(F)F)C1C=CN(S(=O)(=O)C(F)(F)F)C=C1 | 27.1 µM (inactive) | 69.2 µM (inactive) | 54.3 µM (inactive) | 37.8 µM (inactive) | 42.8 µM (inactive) | 36.1 µM (inactive) | 32.4 µM (inactive) | 15.8 µM (inactive) | 37.7 µM (inactive) |  | 38.3 µM (inactive) |  | 48.5 µM (inactive) |  | 28.4 µM (inactive) | 40.6 µM (inactive) | 38.1 µM (inactive) | 37.6 µM (inactive) | 41 µM (inactive) | 24.5 µM (inactive)
C[N+]1(C)CCCC(C#N)(c2ccccc2)CC1 (stereo not given) | > 100 µM (inactive) | > 100 µM (inactive) | > 100 µM (inactive) | > 100 µM (inactive) |  | > 100 µM (inactive) |  | > 100 µM (inactive) | > 100 µM (inactive) | > 100 µM (inactive) | > 100 µM (inactive) | > 100 µM (inactive) | > 100 µM (inactive) |  | > 100 µM (inactive) |  | > 100 µM (inactive) | > 100 µM (inactive) | > 100 µM (inactive) | 
COc1ccc(-c2nc3ccccc3s2)cc1OC | 76.9 µM (inactive) | 13.4 µM (inactive) |  | > 100 µM (inactive) | 27.1 µM (inactive) | 94.4 µM (inactive) |  | 46.6 µM (inactive) | 63.4 µM (inactive) | 34.9 µM (inactive) | 22.7 µM (inactive) |  |  | 54.6 µM (inactive) | 15.5 µM (inactive) | 83.6 µM (inactive) | > 100 µM (inactive) | 53.8 µM (inactive) |  | > 100 µM (inactive)
